Reference: US8329706B2, “Oxazolidinone derivatives” (Actelion Pharmaceuticals Ltd., priority 2009, dated 2012)

What was measured:
human orexin-1 receptor = target: T1, human orexin-1 receptor (Homo sapiens, UniProt O43613); experiment: FLIPR intracellular calcium assay, orexin receptor antagonistic activity (OX1); assay type: cell-based; settings: CHO cells expressing human orexin-1 receptor; agonist 3 nM orexin-A; normalized to on-plate reference; * geomean n = 5, *2 geomean n = 2
T1 construct: expressed in transfected cells; host or cells: CHO cells (G418 selection)
T1 sequence (O43613 1-425): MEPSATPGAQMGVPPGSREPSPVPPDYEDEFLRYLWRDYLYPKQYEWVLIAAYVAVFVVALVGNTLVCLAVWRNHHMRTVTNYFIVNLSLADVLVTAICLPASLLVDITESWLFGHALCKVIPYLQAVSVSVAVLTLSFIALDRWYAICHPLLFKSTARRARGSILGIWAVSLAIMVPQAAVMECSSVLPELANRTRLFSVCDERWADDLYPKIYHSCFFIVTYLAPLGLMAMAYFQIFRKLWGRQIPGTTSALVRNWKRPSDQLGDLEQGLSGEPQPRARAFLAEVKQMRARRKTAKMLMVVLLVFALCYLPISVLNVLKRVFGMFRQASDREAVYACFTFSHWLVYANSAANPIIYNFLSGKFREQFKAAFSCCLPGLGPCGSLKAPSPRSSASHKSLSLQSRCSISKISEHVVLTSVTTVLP
Description: (§1) The orexin receptor antagonistic activity of the compounds of formula (I) is determined in accordance with the following experimental method.
(§2) Chinese hamster ovary (CHO) cells expressing the human orexin-1 receptor and the human orexin-2 receptor, respectively, are grown in culture medium (Ham F-12 with L-Glutamine) containing 300 μg/ml G418, 100 U/ml penicillin, 100 μg/ml streptomycin and 10% heat inactivated fetal calf serum (FCS). The cells are seeded at 20′000 cells/well into 384-well black clear bottom sterile plates (Greiner). The seeded plates are incubated overnight at 37° C. in 5% CO2.
(§3) Human orexin-A as an agonist is prepared as 1 mM stock solution in MeOH:water (1:1), diluted in HBSS containing 0.1% bovine serum albumin (BSA), NaHCO3: 0.375 g/l and 20 mM HEPES for use in the assay at a final concentration of 3 nM.
(§4) Antagonists are prepared as 10 mM stock solution in DMSO, then diluted in 384-well plates using DMSO followed by a transfer of the dilutions into in HBSS containing 0.1% bovine serum albumin (BSA), NaHCO3: 0.375 g/l and 20 mM HEPES. On the day of the assay, 50 μl of staining buffer (HBSS containing 1% FCS, 20 mM HEPES, NaHCO3: 0.375 g/l, 5 mM probenecid (Sigma) and 3 μM of the fluorescent calcium indicator fluo-4 AM (1 mM stock solution in DMSO, containing 10% pluronic) is added to each well. The 384-well cell-plates are incubated for 50 min at 37° C. in 5% CO2 followed by equilibration at rt for 30-120 min before measurement.
(§5) Within the Fluorescent Imaging Plate Reader (FLIPR Tetra, Molecular Devices), antagonists are added to the plate in a volume of 10 μl/well, incubated for 10 min and finally 10 μl/well of agonist is added. Fluorescence is measured for each well at 1 second intervals, and the height of each fluorescence peak is compared to the height of the fluorescence peak induced by 3 nM orexin-A with vehicle in place of antagonist. For each antagonist, the IC50 value (the concentration of compound needed to inhibit 50% of the agonistic response) is determined and normalized using the obtained IC50 value of a on-plate reference compound. Optimized conditions were achieved by adjustment of pipetting speed and cell splitting regime. The calculated IC50 values of the compounds may fluctuate depending on the daily cellular assay performance. Fluctuations of this kind are known to those skilled in the art.

human orexin-2 receptor = target: T2, human orexin-2 receptor (Homo sapiens, UniProt O43614); experiment: FLIPR intracellular calcium assay, orexin receptor antagonistic activity (OX2); assay type: cell-based; settings: CHO cells expressing human orexin-2 receptor; agonist 3 nM orexin-A; normalized to on-plate reference; * geomean n = 5, *2 geomean n = 2
T2 construct: expressed in transfected cells; host or cells: CHO cells (G418 selection)
T2 sequence (O43614 1-444): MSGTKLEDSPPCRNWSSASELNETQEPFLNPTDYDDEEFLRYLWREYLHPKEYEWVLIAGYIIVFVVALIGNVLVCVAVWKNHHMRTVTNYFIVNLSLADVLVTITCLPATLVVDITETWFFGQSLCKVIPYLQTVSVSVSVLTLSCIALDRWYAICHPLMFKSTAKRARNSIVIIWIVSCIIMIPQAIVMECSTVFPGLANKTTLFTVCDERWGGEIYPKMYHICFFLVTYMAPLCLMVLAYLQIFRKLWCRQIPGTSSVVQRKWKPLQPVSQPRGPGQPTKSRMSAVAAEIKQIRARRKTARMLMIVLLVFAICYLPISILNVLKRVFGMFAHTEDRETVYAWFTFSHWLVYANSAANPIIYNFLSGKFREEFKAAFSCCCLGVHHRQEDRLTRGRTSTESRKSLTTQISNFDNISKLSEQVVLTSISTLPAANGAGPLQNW
Description: as §1, §2, §3, §4, §5

COc1cccc(OC)c1C1O[C@@H](C)C(=O)N1Cc1ccc(Oc2ccccc2)cc1 (stereo partly drawn) [Example 59, 2-(2,6-Dimethoxy-phenyl)-(S)-5-methyl-3-(4-phenoxy-benzyl)-oxazolidin-4-one]
IC50 (human orexin-1 receptor): 2130 nM
IC50 (human orexin-2 receptor): 150 nM

COc1cccc(OC)c1C1OCC(=O)N1Cc1ccc(OC(C)C)cc1 (stereo not shown) [Example 60, 2-(2,6-Dimethoxy-phenyl)-3-(4-isopropoxy-benzyl)-oxazolidin-4-one]
IC50 (human orexin-1 receptor): 3240 nM
IC50 (human orexin-2 receptor): 159 nM

COc1cccc(OC)c1C1OC(C)(C)C(=O)N1Cc1ccc(OC(F)(F)F)cc1 (stereo not shown) [Example 61, 2-(2,6-Dimethoxy-phenyl)-5,5-dimethyl-3-(4-trifluoromethoxy-benzyl)-oxazolidin-4-one]
IC50 (human orexin-1 receptor): 29 nM
IC50 (human orexin-2 receptor): 160 nM

COc1cccc(OC)c1C1O[C@H](C)C(=O)N1Cc1nc2ccccc2s1 (stereo partly drawn) [Example 62, 3-Benzothiazol-2-ylmethyl-2-(2,6-dimethoxy-phenyl)-(R)-5-methyl-oxazolidin-4-one]
IC50 (human orexin-1 receptor): 2870 nM
IC50 (human orexin-2 receptor): 193 nM

COc1cccc(OC)c1C1O[C@H](C)C(=O)N1Cc1ccc(OC(F)(F)F)cc1 (stereo partly drawn) [Example 63, 2-(2,6-Dimethoxy-phenyl)-(R)-5-methyl-3-(4-trifluoromethoxy-benzyl)-oxazolidin-4-one]
IC50 (human orexin-1 receptor): 260 nM
IC50 (human orexin-2 receptor): 216 nM

COc1cccc(OC)c1C1OC(C)(C)C(=O)N1Cc1nc2ccccc2s1 (stereo not shown) [Example 64, 3-Benzothiazol-2-ylmethyl-2-(2,6-dimethoxy-phenyl)-5,5-dimethyl-oxazolidin-4-one]
IC50 (human orexin-1 receptor): 411 nM
IC50 (human orexin-2 receptor): 222 nM

COc1cccc(OC)c1C1OCC(=O)N1Cc1ccc(OCC2CC2)cc1 (stereo not shown) [Example 65, 3-(4-Cyclopropylmethoxy-benzyl)-2-(2,6-dimethoxy-phenyl)-oxazolidin-4-one]
IC50 (human orexin-1 receptor): 6320 nM
IC50 (human orexin-2 receptor): 243 nM

COc1cccc(OC)c1C1O[C@@H](C)C(=O)N1Cc1ccc2ccccc2c1 (stereo partly drawn) [Example 66, 2-(2,6-Dimethoxy-phenyl)-(S)-5-methyl-3-naphthalen-2-ylmethyl-oxazolidin-4-one]
IC50 (human orexin-1 receptor): 421 nM
IC50 (human orexin-2 receptor): 266 nM

COc1cccc(OC)c1C1OC(C)(C)C(=O)N1Cc1ccc(OC(F)(F)F)c(F)c1 (stereo not shown) [Example 67, 2-(2,6-Dimethoxy-phenyl)-3-(3-fluoro-4-trifluoromethoxy-benzyl)-5,5-dimethyl-oxazolidin-4-one]
IC50 (human orexin-1 receptor): 25 nM
IC50 (human orexin-2 receptor): 322 nM

COc1cccc(OC)c1C1OC(C)(C)C(=O)N1Cc1nc2ccccc2o1 (stereo not shown) [Example 68, 3-Benzooxazol-2-ylmethyl-2-(2,6-dimethoxy-phenyl)-5,5-dimethyl-oxazolidin-4-one]
IC50 (human orexin-1 receptor): 2940 nM
IC50 (human orexin-2 receptor): 508 nM

COc1cccc(OC)c1C1OC(C)(C)C(=O)N1Cc1ccc(OC(F)F)cc1 (stereo not shown) [Example 69, 3-(4-Difluoromethoxy-benzyl)-2-(2,6-dimethoxy-phenyl)-5,5-dimethyl-oxazolidin-4-one]
IC50 (human orexin-1 receptor): 187 nM
IC50 (human orexin-2 receptor): 928 nM

COc1cccc(OC)c1C1OC(C)(C)C(=O)N1Cc1nc2ccccc2n1C (stereo not shown) [Example 70, 2-(2,6-Dimethoxy-phenyl)-5,5-dimethyl-3-(1-methyl-1H-benzoimidazol-2-ylmethyl)-oxazolidin-4-one]
IC50 (human orexin-1 receptor): 65 nM
IC50 (human orexin-2 receptor): 1300 nM

COc1cccc(OC)c1C1OC(C)(C)C(=O)N1Cc1ccc2c(c1)OCO2 (stereo not shown) [Example 71, 3-Benzo[1,3]dioxol-5-ylmethyl-2-(2,6-dimethoxy-phenyl)-5,5-dimethyl-oxazolidin-4-one]
IC50 (human orexin-1 receptor): 150 nM
IC50 (human orexin-2 receptor): 1660 nM

COc1ccc(CN2C(=O)C(C)(C)OC2c2c(OC)cccc2OC)cc1 (stereo not shown) [Example 72, 2-(2,6-Dimethoxy-phenyl)-3-(4-methoxy-benzyl)-5,5-dimethyl-oxazolidin-4-one]
IC50 (human orexin-1 receptor): 188 nM
IC50 (human orexin-2 receptor): 2270 nM

CCCOc1ccc(CN2C(=O)[C@@H](C)OC2c2c(OC)cccc2OC)cc1 (stereo partly drawn) [Example 73, 2-(2,6-Dimethoxy-phenyl)-(R)-5-methyl-3-(4-propoxy-benzyl)-oxazolidin-4-one]
IC50 (human orexin-1 receptor): 581 nM
IC50 (human orexin-2 receptor): 86 nM

COc1cccc(OC)c1C1O[C@H](C)C(=O)N1Cc1ccc(OC(C)C)cc1 (stereo partly drawn) [Example 74, 2-(2,6-Dimethoxy-phenyl)-3-(4-isopropoxy-benzyl)-(R)-5-methyl-oxazolidin-4-one]
IC50 (human orexin-1 receptor): 1210 nM
IC50 (human orexin-2 receptor): 95 nM

COc1cccc(OC)c1C1O[C@H](C)C(=O)N1Cc1ccc(OCC2CC2)cc1 (stereo partly drawn) [Example 75, 3-(4-Cyclopropylmethoxy-benzyl)-2-(2,6-dimethoxy-phenyl)-(R)-5-methyl-oxazolidin-4-one]
IC50 (human orexin-1 receptor): 1760 nM
IC50 (human orexin-2 receptor): 123 nM

COc1cccc(OC)c1C1OC(C)(C)C(=O)N1Cc1ccc(OC(C)C)cc1 (stereo not shown) [Example 76, 2-(2,6-Dimethoxy-phenyl)-3-(4-isopropoxy-benzyl)-5,5-dimethyl-oxazolidin-4-one]
IC50 (human orexin-1 receptor): 114 nM
IC50 (human orexin-2 receptor): 193 nM

CCCOc1ccc(CN2C(=O)C(C)(C)OC2c2c(OC)cccc2OC)cc1 (stereo not shown) [Example 77, 2-(2,6-Dimethoxy-phenyl)-5,5-dimethyl-3-(4-propoxy-benzyl)-oxazolidin-4-one]
IC50 (human orexin-1 receptor): 114 nM
IC50 (human orexin-2 receptor): 484 nM

COc1cccc(OC)c1C1OC(C)(C)C(=O)N1Cc1ccc(OCC2CC2)cc1 (stereo not shown) [Example 78, 3-(4-Cyclopropylmethoxy-benzyl)-2-(2,6-dimethoxy-phenyl)-5,5-dimethyl-oxazolidin-4-one]
IC50 (human orexin-1 receptor): 472 nM
IC50 (human orexin-2 receptor): 620 nM

CCOc1ccc(CN2C(=O)[C@@H](C)O[C@@H]2c2c(OC)cccc2OC)cc1 [Example 79, 2-(2,6-Dimethoxy-phenyl)-3-(4-ethoxy-benzyl)-(r)-5-methyl-oxazolidin-4-one]
IC50 (human orexin-1 receptor): 830 nM
IC50 (human orexin-2 receptor): 864 nM

CCOc1ccc(CN2C(=O)C(C)(C)OC2c2c(OC)cccc2OC)cc1 (stereo not shown) [Example 80, 2-(2,6-Dimethoxy-phenyl)-3-(4-ethoxy-benzyl)-5,5-dimethyl-oxazolidin-4-one]
IC50 (human orexin-1 receptor): 139 nM
IC50 (human orexin-2 receptor): 1940 nM

Cc1cccc(C)c1C1OC(C)(C)C(=O)N1Cc1ccc(OC(F)(F)F)c(Cl)c1 (stereo not shown) [Example 81, 3-(3-Chloro-4-trifluoromethoxy-benzyl)-2-(2,6-dimethyl-phenyl)-5,5-dimethyl-oxazolidin-4-one]
IC50 (human orexin-1 receptor): 920 nM
IC50 (human orexin-2 receptor): 88 nM

CC1(C)OC(c2c(F)cccc2F)N(Cc2ccc(OC(F)(F)F)c(Cl)c2)C1=O (stereo not shown) [Example 82, 3-(3-Chloro-4-trifluoromethoxy-benzyl)-2-(2,6-difluoro-phenyl)-5,5-dimethyl-oxazolidin-4-one]
IC50 (human orexin-1 receptor): 336 nM
IC50 (human orexin-2 receptor): 110 nM

COc1cccc(C)c1C1OC(C)(C)C(=O)N1Cc1ccc(OC(F)(F)F)c(Cl)c1 (stereo not shown) [Example 83, 3-(3-Chloro-4-trifluoromethoxy-benzyl)-2-(2-methoxy-6-methyl-phenyl)-5,5-dimethyl-oxazolidin-4-one]
IC50 (human orexin-1 receptor): 133 nM
IC50 (human orexin-2 receptor): 69 nM

COc1cccc(F)c1C1OC(C)(C)C(=O)N1Cc1ccc(Oc2ccccc2)cc1 (stereo not shown) [Example 84, 2-(2-Fluoro-6-methoxy-phenyl)-5,5-dimethyl-3-(4-phenoxy-benzyl)-oxazolidin-4-one]
IC50 (human orexin-1 receptor): 421 nM
IC50 (human orexin-2 receptor): 46 nM
